For one assay, the target named is T1, ULK1 (Homo sapiens, UniProt O75385).
T1 construct: purchased Promega V3521
T1 sequence (O75385 1-1050): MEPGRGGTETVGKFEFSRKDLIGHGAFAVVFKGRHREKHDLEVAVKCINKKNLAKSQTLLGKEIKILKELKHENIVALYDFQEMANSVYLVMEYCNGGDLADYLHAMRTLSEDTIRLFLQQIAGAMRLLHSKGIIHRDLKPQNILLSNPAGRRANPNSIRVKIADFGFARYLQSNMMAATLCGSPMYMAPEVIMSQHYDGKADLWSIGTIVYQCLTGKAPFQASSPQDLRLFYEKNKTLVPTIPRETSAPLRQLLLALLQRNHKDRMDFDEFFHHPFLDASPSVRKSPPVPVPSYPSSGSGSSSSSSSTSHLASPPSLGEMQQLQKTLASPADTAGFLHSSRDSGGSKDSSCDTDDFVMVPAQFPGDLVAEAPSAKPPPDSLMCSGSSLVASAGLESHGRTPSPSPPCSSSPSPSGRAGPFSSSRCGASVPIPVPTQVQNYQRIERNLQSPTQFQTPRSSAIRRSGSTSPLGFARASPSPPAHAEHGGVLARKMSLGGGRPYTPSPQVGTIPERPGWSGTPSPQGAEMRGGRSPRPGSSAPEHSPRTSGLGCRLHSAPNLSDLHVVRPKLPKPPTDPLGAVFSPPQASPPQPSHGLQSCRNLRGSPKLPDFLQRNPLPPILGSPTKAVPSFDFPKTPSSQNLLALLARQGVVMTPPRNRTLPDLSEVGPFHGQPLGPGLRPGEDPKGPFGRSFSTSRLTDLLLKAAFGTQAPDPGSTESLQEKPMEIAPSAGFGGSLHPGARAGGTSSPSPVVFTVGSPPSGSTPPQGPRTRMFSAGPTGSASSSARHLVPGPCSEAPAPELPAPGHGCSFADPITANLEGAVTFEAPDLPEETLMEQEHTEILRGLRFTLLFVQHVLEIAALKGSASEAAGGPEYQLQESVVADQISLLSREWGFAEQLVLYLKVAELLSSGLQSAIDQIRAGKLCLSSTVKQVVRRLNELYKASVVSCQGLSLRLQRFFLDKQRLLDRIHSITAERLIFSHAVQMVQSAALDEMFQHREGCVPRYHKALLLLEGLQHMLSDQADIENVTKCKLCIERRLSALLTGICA
Put plainly: Inhibition of ULK1 protein activity (phosphorylation function), ADP-Glo method. Type of assay: biochemical. Here is the method: In this experiment, the inhibitory effect of a compound on the phosphorylation function of ULK1 was detected by ADP-Glo method. The inhibitory effect of the compound of the present disclosure on the ULK1 target was evaluated based on IC50.
Compound formulation: Using an ECHO (Beckman, ECHO650), the compound was serially diluted 3-fold in DMSO in a 384-well plate (PE, 6007290). A total of 10 concentration points were set, with the maximum concentration of the compound being 10 µM, and 50 nL per well. Positive control wells and negative control wells were added with 50 nL DMSO, respectively.
Reaction process: A 32 nM of ULK1 (Promega, V3521) solution was formulated, and 2.5 µL/well was transferred to the compound test wells and the negative control wells (NC). 2.5 µL/well of 1× Assay buffer was added to the positive control wells (PC). A mixed solution of 100 µM of ATP and 1.86 µM of MBP was formulated, and 2.5 µL/well was transferred to the reaction plate. After centrifugation, the reaction was initiated and incubated at room temperature for 60 min. After the reaction was completed, 5 µL/well of ADP-Glo Reagent (Promega, V9102) was added to the reaction plate. After centrifugation, the reaction was incubated at room temperature for 40 minutes. Finally, 10 µL/well of Kinase Detection Buffer was added, followed by centrifugation and incubation at room temperature for 30 min. The chemiluminescence value was read using Envision (PE, Envision2105).
Assay buffer: a reaction buffer; and Kinase Detection buffer: a detection buffer, both were taken from the ADP-Glodetection kit, purchased from Promega, model V9102.
The inhibition ratio of a compound on ULK1 activity was calculated using the following formula: [formula]
The dose-effect curve was fitted using the log(inhibitor) vs. response -Variable slope of the analysis software GraphPad Prism 8, thereby affording the IC50 value of each compound for enzyme activity.
(ADP-Glo first removes unused ATP, then detects ADP through luciferase.)

Assay [1] relates to autophagy level in HEK293 GFP-LC3 stably transfected cells. Put plainly: Inhibition of autophagy level in HEK293 GFP-LC3 stably transfected cells (GFP fluorescence, high-content imaging). Type of assay: cell-based. The settings on record: Homo sapiens, Torin1 100 nM, 24 h incubation, 8 concentrations, highest 10 µM, read-out: Autophagic Flux IC50. Here is the method:
The inhibitory effect of the compound of the present disclosure on intracellular autophagy was evaluated by testing the impact of the compound of the present disclosure on the fluorescence intensity of HEK293 GFP-LC3 stably transfected cells.
HEK293 GFP-LC3 stably transfected cells (HEK293, ATCC, CRL-1573) were cultured in a complete medium, namely, a DMEM medium (Gibco, 11965-092) containing 10% fetal bovine serum (Corning, 35-081-CV), 1% double antibody (Gibco, 15140-122) and 1 µg/mL of Puromycin (Invitrogen- A1113803).
Cell plating: HEK293 GFP-LC3 stably transfected cells at 80% growth confluence were digested, diluted with a medium free of Puromycin, and added to a 96-well cell culture plate (Geriner, 655090) at 12,000 cells per well, with a volume of 90 µL.
Compound incubation: 5 µL of Torin1 and 5 µL of a serially diluted compound were added to each well so that the highest concentration of the compound in the reaction system was 10 µM. 3-fold serial dilution with 8 concentrations was performed, and the final concentration of Torin1 was 100 nM. The DMSO content in the system was 0.1%. The positive control wells (PC) contain DMSO at a final concentration of 0.1%, and the negative control wells (NC) contain 100 nM of Torin1 with 0.1% of DMSO. The reaction plate was placed in an incubator at 37°C in 5% CO2, and was incubated for 24 h.
Cell staining and fixation: The cell plate was taken out, and 10 µL of Hochest33342 nuclear staining reagent (Thermo, H1399) was added to each well, followed by incubation at 37°C in 5% CO2 for 30 min. After the incubation was completed, the cell supernatant was discarded, and 100 µL of pre-cooled 4% paraformaldehyde was added to each well to fix the cells for 15 min. Then, the fixative was discarded, and 100 µL of PBS was added to each well. Images were captured for analysis using a high-content cell imaging analyzer (PE, Operetta CLS), and GFP fluorescence signals were collected for data processing.
The average GFP fluorescence signal intensity in the reaction wells was collected for the calculation of the inhibition ratio: [formula]
The dose-effect curve was fitted using the log(inhibitor) vs. response -Variable slope of Graphpad Prism8, thereby affording the IC50 value of each compound for inhibiting autophagy level in HEK293 GFP-LC3 stably transfected cells.

These results are taken from patent EP4778931A1, “ULK1 INHIBITOR, PREPARATION METHOD THEREFOR AND USE THEREOF” (Dovetree Medicines Unus, Inc., priority 2023, dated 2025).

Regarding `CN1CCN2c3ccc(Nc4ncc(C(F)(F)F)c(N5CCN(C)C(=O)C5)n4)cc3COCC2C1` (stereo not shown) [Compound 1], the IC50 – broadly, the concentration needed to halve the response being measured – on ULK1 is 100 to 1000 nM; in assay [1] it was greater than 1000 nM.

For `CN1CCN2c3ccc(Nc4ncc(C(F)(F)F)c(N5CCC6(CCN(C)C6)CC5)n4)cc3COCC2C1` (stereo not shown) [Compound 2], the IC50 was less than 100 nM on ULK1 and 100 to 1000 nM in assay [1].

Consider `CN1CCN2c3ccc(Nc4ncc(C(F)(F)F)c(OCCCN5CCCCC5=O)n4)cc3COCC2C1` (stereo not shown) [Compound 3], for which the IC50 was less than 100 nM against ULK1 and 100 to 1000 nM in assay [1].

As for `CN1CCN2c3ccc(Nc4ncc(C(F)(F)F)c(N5CCC(n6cccn6)CC5)n4)cc3COCC2C1` (stereo not shown) [Compound 4], the half-maximal inhibitory concentration (IC50) at ULK1 was less than 100 nM; in assay [1], 100 to 1000 nM.

Consider `CN1CCN2c3ccc(Nc4ncc(C(F)(F)F)c(N5CCC6(CCN(C)C6)C5)n4)cc3COCC2C1` (stereo not shown) [Compound 5], for which the results for the 50% inhibitory concentration (IC50) (at ULK1; in assay [1]) were less than 100 nM and 100 to 1000 nM, respectively.

Turning to `CN1CCN2c3ccc(Nc4ncc(C(F)(F)F)c(N[C@H]5CC[C@@H](n6cccn6)CC5)n4)cc3COCC2C1` (stereo partly shown) [Compound 6], the IC50 was less than 100 nM against ULK1 and 100 to 1000 nM in assay [1].

Take `CN1CCN2c3ccc(Nc4ncc(C(F)(F)F)c(NCCCn5cccn5)n4)cc3COCC2C1` (stereo not shown) [Compound 8]: the results for the IC50 (against ULK1; in assay [1]) were less than 100 nM and 100 to 1000 nM, respectively.

For the compound `CN1CCN2c3ccc(Nc4ncc(C(F)(F)F)c(OCCCc5ccccc5C#N)n4)cc3COCC2C1` (stereo not shown) [Compound 9], the results for the IC50 (against ULK1; in assay [1]) were less than 100 nM and 100 to 1000 nM, respectively.

On to `CN1CCN2c3ccc(Nc4ncc(C(F)(F)F)c(NCCCN5CCCCC5=O)n4)cc3COCC2C1` (stereo not shown) [Compound 11], for which the IC50 against ULK1 is less than 100 nM; in assay [1] it was greater than 1000 nM.

`CN1CCN2c3ccc(Nc4ncc(C(F)(F)F)c(OCCCN5CCCCC5=O)n4)cc3OCC2C1` (stereo not shown) [Compound 12]: the IC50 on ULK1 was less than 100 nM; in assay [1] it was 100 to 1000 nM.

In the case of `CN1CCN2c3ccc(Nc4ncc(C(F)(F)F)c(N5CC6(CCN(C)C6)C5)n4)cc3COCC2C1` (stereo not shown) [Compound 20], the IC50 is less than 100 nM on ULK1 and greater than 1000 nM in assay [1].

For `CN1CCN2c3ccc(Nc4ncc(C(F)(F)F)c(NC5CCN(C(=O)C6CCC6)CC5)n4)cc3COCC2C1` (stereo not shown) [Compound 21], the IC50 at ULK1 is less than 100 nM; in assay [1] it was 100 to 1000 nM.

As to `CN1CCN2c3ccc(Nc4ncc(C(F)(F)F)c(N5CC6(CN(C)C6)C5)n4)cc3COCC2C1` (stereo not shown) [Compound 22], the figures for the IC50 (against ULK1; in assay [1]) were less than 100 nM and greater than 1000 nM, respectively.

As for `CN1CCN2c3ccc(Nc4ncc(C(F)(F)F)c(OCCCn5cccn5)n4)cc3COCC2C1` (stereo not shown) [Compound 23], the values for the IC50 (against ULK1; in assay [1]) were less than 100 nM and 100 to 1000 nM, respectively.
